Like-named read-outs stand apart in the source and are kept apart here.

These results are taken from patent US20240238448A1, “USE OF CHEMICAL EPIGENETIC MODIFIERS TO MODULATE GENE […] VECTORS” (The University of North Carolina at Chapel Hill, priority 2021, published 2024).

Data set [1] in a line: Pharmacokinetics of CEM87 in mice. To be noted: mouse, in vivo. The method, then: Pharmacokinetic Data of CEM87 in Mice: Initial and encouraging pharmacokinetics (PK) analysis of CEM87 were conducted. Mice were administered a single 3 mg/kg dose of CEM87 via intravenous (IV) injection or a single dose of 30 mg/kg of CEM87 through the intraperitoneal (IP) route (n=9 per group, 3 mice per time point).

In data set [2] the test system is AAV2-BD-JET-GFP genomes in 293-ZF-FKBP cells. Description: CEM activation of AAV2-BD-JET-GFP vectors in 293-ZF-FKBP cells, GFP fluorescence by flow cytometry. It counts as cell-based, human. To be noted: AAV vectors without the engrafted ZF BD, or AAV2-BD-JET-GFP in WT 293 cells. As to the method:
It was then examined whether CEM87 can control recombinant AAV transgene expression in transduced cells. HEK293T.17 cells that stably expresses ZF-FKBP were transduced with an AAV2 vector that contains a zinc finger DNA binding domain recognition sequence specific to the array in ZF-FKBP upstream of a JET promoter and an eGPF reporter gene downstream of the promoter. After 24 h the cell media was replaced with media containing either 200 nM CEM87 or a DMSO control. 48 hours post CEM87 addition, cells were imaged and flow cytometry run to determine the percent eGFP expression.
Some of these experiments relied on a 293 cell line harboring a stable constitutive ZF-FKBP cassette (293-ZF-FKBP) and transduction by AAV2-JET-GFP vectors harboring the ZF binding domain recognition sequence (BD) upstream of the constitutive JET promoter (FIG. 5). Two chemicals were investigated in these initial studies, CEM87 and CEM114 which bind ZF-FKBP and act to recruit BRD4 or CBP/p300, respectively. […] Following the transduction of AAV2-BD-Jet-GFP vectors to 293-ZF-FKBP cells, increasing concentrations of CEMs (87 or 114) were added to the culture medium. Two days later, GFP fluorescence was analyzed by flow cytometry.
Background: In flow cytometry, cells or beads pass a laser one at a time.

Data set [3] concerns transgene (firefly luciferase) expression in HEK293T.17 cells. Nature of the data set: ZF-CEM technology AAV transgene expression, Promega Dual Luciferase Assay in HEK293T.17 cells. It counts as cell-based, human. The method, then: At a higher viral genomes per cell dose of virus, higher fold change in transgene (firefly luciferase) expression was seen. HEK293T.17 cells that stably express Renilla Luciferase (for normalization purposes) were plated at 7.5K cells per well in a 96 well plate. The next day, the cells were infected with ZF-CEM technology virus at either 2K or 20K vg/cell. After 24 hours, the cells were treated with varying concentrations of CEM87. After an additional 48 hours (72 hours post initial AAV infection), a Promega Dual Luciferase Assay was run to determine the levels of luciferase.
At 20K viral genomes per cell, ZF-CEM technology was able to increase the levels of transgene (firefly luciferase) expression in a statistically significant manner as early as 24 hours and continue to have effects up to 96 hours post CEM87 addition (FIG. 16). The highest fold change in luciferase expression was seen 24 hours after CEM87 dosage (48 hours after AAV infection). HEK293T.17 cells that stably express Renilla Luciferase (for normalization purposes) were plated at 7.5K cells per well in a 96 well plate. The next day, the cells were infected with ZF-CEM technology virus at 20K vg/cell. After 24 hours, the cells were treated with 200 nM CEM87. A Promega Dual Luciferase Assay was run every 24 hours post CEM87 dosage to determine the levels of luciferase over time.
At 20K viral genomes per cell, the impact of ZF-CEM technology on transgene expression was reversible through washout or washout with the addition of FK506, a chemical capable of competing off CEM87 from the transgene it is recruited to (FIG. 17). Reversibility was achieved within 24 hours of removal of CEM87 through washout or washout and treatment with 100× more FK506 ([…]). HEK293T.17 cells that stably express Renilla Luciferase (for normalization purposes) were plated at 7.5K cells per well in a 96 well plate. The next day, the cells were infected with ZF-CEM technology virus at 20K vg/cell. After 24 hours, the cells were treated with 200 nM CEM87. After 48 hours, wells were either washed out with fresh media or washed out with fresh media that contained […]. A Promega Dual Luciferase Assay was run every 24 hours post washout/FK506 dosage to determine the levels of luciferase over time.
HEK293T.17 cells that stably express Renilla Luciferase (for normalization purposes) were plated at 7.5K cells per well in a 96 well plate. The next day, the cells were infected with ZF-CEM technology virus at 20K vg/cell. After 24 hours, the cells were treated with 200 nM CEM114. After 48 hours, a Promega Dual Luciferase Assay was run to determine the levels of luciferase.

On to `COc1ccc2c(c1)C(c1ccc(Cl)cc1)=N[C@@H](CC(=O)NCc1cn(CCOCCOCCOCCNC(=O)CCSCCC[C@@H]3/C=C(\C)C[C@H](C)C[C@H](OC)[C@H]4O[C@@](O)(C(=O)C(=O)N5CCCC[C@H]5C(=O)O[C@H](/C(C)=C/[C@@H]5CC[C@@H](O)[C@H](OC)C5)[C@H](C)[C@@H](O)CC3=O)[C@H](C)C[C@@H]4OC)nn1)c1nnc(C)n1-2` [CEM87], for which the AUC(0-t) was found to be 27500 ng·h/mL in data set [1] (single 3 mg/kg IV, read-out: exposure (AUC0-24)) and 114000 ng·h/mL in data set [1] (single 30 mg/kg IP, read-out: AUC0-24). The half-life was approximately 4 h in data set [1] (single 3 mg/kg IV, read-out: half-life (t1/2) (converted)) and 4 h in data set [1] (single 30 mg/kg IP, read-out: t1/2 (converted)). Besides, the Cmax in data set [1] (single 3 mg/kg IV, read-out: maximal concentration (Cmax)) was determined as 34100 ng/mL; in data set [1] (single 30 mg/kg IP, read-out: Cmax), 15500 ng/mL. In addition, in data set [1] (single 30 mg/kg IP), the bioavailability (in general, dose-corrected exposure relative to a reference, in per cent) is approximately 50%. Also, in data set [2], the “drug response in control experiments” value is recorded as “no drug response”. In addition, the “chemical control of transgene (firefly luciferase) expression (in words)” value in data set [3] (2K or 20K vg/cell, varying concentrations, 48 hours after CEM87 (72 hours post AAV infection)) is “dose dependent chemical control”. Besides, the “earliest time of statistically significant increase of transgene (firefly luciferase) expression post CEM87 addition” value in data set [3] (20K vg/cell, 200 nM CEM87) worked out at 24 h. In data set [3] (20K vg/cell, 200 nM CEM87), the “time up to which effects on luciferase expression continue post CEM87 addition” value is reported as “up to 96 hours”. Besides, the “time of highest fold change in luciferase expression after CEM87 dosage” value in data set [3] (20K vg/cell, 200 nM CEM87, 48 hours after AAV infection) amounted to 24 h. Besides, in data set [3] (20K vg/cell, 200 nM CEM87 for 48 hours, then washout or washout with 100× more FK506), the “time to reversibility of transgene expression after removal of CEM87” value was not above 24 h.
With `CO[C@H]1C[C@@H](C)C/C(C)=C/[C@@H](CCCSCCC(=O)NCCOCCOCCOCCn2cc(COc3ccc(CCc4nc5cc(-c6c(C)noc6C)ccc5n4CCN4CCOCC4)cc3F)nn2)C(=O)C[C@H](O)[C@@H](C)[C@@H](/C(C)=C/[C@@H]2CC[C@@H](O)[C@H](OC)C2)OC(=O)[C@@H]2CCCCN2C(=O)C(=O)[C@]2(O)O[C@H]1[C@@H](OC)C[C@H]2C` [CEM114], the “effect on AAV transgene expression (in words)” value in data set [3] (20K vg/cell, 200 nM CEM114, 48 hours) was “increase AAV transgene expression”.
